The text below walks through data of EP4635500A1, “THERAPEUTIC AGENT FOR BACTERIAL INFECTION” (Sumitomo Pharma Co., Ltd., priority 2022, dated 2024).

Holding throughout (assay type): cell-based
In one experiment the test system is Klebsiella pneumoniae. The experiment in a line: MIC, broth microdilution, standard strains and Japanese clinical isolates (Example 5, Table 4).
The subject of another experiment is Escherichia coli. Described as above.
The next experiment concerns Enterobacter aerogenes. The experiment in a line: MIC and MBC, broth microdilution (Example 4, Table 3).
Another experiment deals with Enterobacter cloacae. In words: MIC, broth microdilution, standard strains and Japanese clinical isolates (Example 5, Table 4). A general note: Dilution methods test growth across graded concentrations, often in twofold steps.
Another experiment deals with Serratia marcescens. In words: MIC and MBC, broth microdilution (Example 4, Table 3). To be noted: Serratia marcescens CDC-124 (SME-3).
Another experiment has as its system Morganella morganii. The description is as above. To be noted: Morganella morganii CDC-57 (NDM-1).
A further experiment concerns Acinetobacter baumannii. The description is as above.
For the next experiment, the system named is Enterobacter hormaechei. The experiment in a line: MIC, broth microdilution, standard strains and Japanese clinical isolates (Example 5, Table 4). The settings on record: ATCCBAA2082; KUB4001 Enterobacter hormaechei ATCC BAA-2082, KPC-2.
For experiment [1], the system named is Metallo-β-lactamase producing strains (N = 27). The experiment in a line: MIC50/MIC90 for carbapenemase-producing isolates (Example 5, Table 6). Also on record: MIC50: unit not given here. The settings on record: for MIC90: metallo-β-lactamase-producing strains, combination: Compound A at a fixed concentration of 4 µg/mL.
Where [2] appears, read: KUB3633 Klebsiella pneumoniae Clinical isolate, IMP-6.
The mark [3] stands for this setting: KUB3634 Klebsiella pneumoniae Clinical isolate, IMP-6.
The mark [4] stands for this setting: ATCCBAA2452, KUB4005 Escherichia coli ATCC BAA-2452, NDM-1.
[5] abbreviates: ATCCBAA1898, KUB3996 Klebsiella pneumoniae ATCC BAA-1898, KPC-2.
Setting [6] is: ATCCBAA1899, KUB3997 Klebsiella pneumoniae ATCC BAA-1899, KPC-2.
Setting [7] is: ATCCBAA1900, KUB3998 Klebsiella pneumoniae ATCC BAA-1900, KPC-3.
The mark [8] stands for this setting: ATCCBAA1904, KUB3999 Klebsiella pneumoniae ATCC BAA-1904, KPC-3.
The mark [9] stands for this setting: ATCCBAA2078, KUB4000 Klebsiella pneumoniae ATCC BAA-2078, KPC-3.
The mark [10] stands for this setting: ATCCBAA2146, KUB4011 Klebsiella pneumoniae ATCC BAA-2146, NDM-1.
The mark [11] stands for this setting: ATCCBAA2342, KUB4003 Klebsiella pneumoniae ATCC BAA-2342, KPC-3.
Where [12] appears, read: ATCCBAA2343, KUB4004 Klebsiella pneumoniae ATCC BAA-2343, KPC-3.
Setting [13] is: ATCCBAA2472, KUB4008 Klebsiella pneumoniae subsp. Pneumoniae ATCC BAA-2472, NDM-1.
Where [14] appears, read: ATCCBAA2473, KUB4009 Klebsiella pneumoniae ATCC BAA-2473, NDM-1.
[15] abbreviates: KUB3631 Klebsiella pneumoniae Clinical isolate, IMP-1.
The mark [16] stands for this setting: ATCCBAA2341, KUB4002 Enterobacter cloacae ATCC BAA-2341, KPC-3.
Where [17] appears, read: ATCCBAA2468, KUB4006 Enterobacter cloacae ATCC BAA-2468, NDM-1.
The mark [18] stands for this setting: Acinetobacter baumannii CDC-303 (OXA-23, OXA-66).
The mark [19] stands for this setting: ATCCBAA2471, KUB4007 Escherichia coli ATCC BAA-2471, NDM-6.

Converted amounts (≈) assume the structure as drawn. Read-outs that look alike come from different tables or passages of the source.

With `C[C@H]1[C@H](NC(=O)/C(=N\OC(C)(C)C(=O)O)c2csc(N)n2)C(=O)N1S(=O)(=O)O` [Aztreonam, aztreonam], the MIC (commonly the least concentration at which growth counts as inhibited) in the experiment with Klebsiella pneumoniae (setting [2]) came out at 8 µg/mL (≈ 18.4 µM); with Klebsiella pneumoniae (setting [3]), 16 µg/mL (≈ 36.7 µM); against Escherichia coli (setting [4]), 4 µg/mL (≈ 9.19 µM).
With `CC(C)(O/N=C(\C(=O)N[C@@H]1C(=O)N2C(C(=O)[O-])=C(C[n+]3ccccc3)CS[C@H]12)c1csc(N)n1)C(=O)O` [CAZ, ceftazidime], the MBC/MIC ratio in the experiment with Enterobacter aerogenes (Enterobacter aerogenes CDC-161 (IMP-4)) came out at 1; in the experiment on Serratia marcescens, 256; in the experiment with Acinetobacter baumannii (setting [18]) it was 2; in the experiment with Acinetobacter baumannii (Acinetobacter baumannii CDC-304 (OXA-66, OXA-72)), 1. In addition, the MBC (commonly the smallest concentration meeting the test's criterion for killing) against Enterobacter aerogenes (Klebsiella aerogenes) was 128 µg/mL (≈ 234 µM); in the experiment with Serratia marcescens, 64 µg/mL (≈ 117 µM); in the experiment with Morganella morganii it was > 128 µg/mL; in the experiment with Acinetobacter baumannii (Acinetobacter baumannii, Acinetobacter baumannii CDC-33 (NDM-1, OXA-94)) it was > 128 µg/mL; in the experiment on Acinetobacter baumannii (Acinetobacter baumannii, Acinetobacter baumannii CDC-101 (OXA-24, OXA-65)) it was > 128 µg/mL; with Acinetobacter baumannii (Acinetobacter baumannii, Acinetobacter baumannii CDC-303 (OXA-23, OXA-66)), 128 µg/mL (≈ 234 µM). In addition, the MBC in the experiment on Acinetobacter baumannii (Acinetobacter baumannii, Acinetobacter baumannii CDC-304 (OXA-66, OXA-72)) amounted to 64 µg/mL (≈ 117 µM). In addition, the MIC is 128 µg/mL (≈ 234 µM) against Enterobacter aerogenes (Klebsiella aerogenes); > 32 µg/mL with Klebsiella pneumoniae (setting [5]); > 32 µg/mL against Klebsiella pneumoniae (setting [6]); > 32 µg/mL in the experiment on Klebsiella pneumoniae (setting [7]); 16 µg/mL (≈ 29.3 µM) in the experiment on Klebsiella pneumoniae (setting [8]); > 32 µg/mL against Klebsiella pneumoniae (setting [9]). Also, the MIC against Klebsiella pneumoniae (setting [10]), against Klebsiella pneumoniae (setting [11]), against Klebsiella pneumoniae (setting [12]), with Klebsiella pneumoniae (setting [13]), against Klebsiella pneumoniae (setting [14]) and in the experiment on Klebsiella pneumoniae (setting [15]) was > 32 µg/mL throughout. For the same molecule, the MIC was 32 µg/mL (≈ 58.5 µM) in the experiment with Klebsiella pneumoniae (setting [2]); 16 µg/mL (≈ 29.3 µM) against Klebsiella pneumoniae (setting [3]); > 32 µg/mL with Klebsiella pneumoniae (KUB3635 Klebsiella pneumoniae Clinical isolate, IMP-1); > 32 µg/mL against Enterobacter cloacae (setting [16]); > 32 µg/mL against Enterobacter cloacae (setting [17]); 0.25 µg/mL (≈ 0.457 µM) in the experiment with Serratia marcescens. Also, the MIC is > 128 µg/mL in the experiment on Morganella morganii; 64 µg/mL (≈ 117 µM) in the experiment on Acinetobacter baumannii (setting [18]); 64 µg/mL (≈ 117 µM) with Acinetobacter baumannii (Acinetobacter baumannii CDC-304 (OXA-66, OXA-72), read-out: MIC); > 128 µg/mL in the experiment on Acinetobacter baumannii (Acinetobacter baumannii, Acinetobacter baumannii CDC-33 (NDM-1, OXA-94), read-out: MIC); > 128 µg/mL with Acinetobacter baumannii (Acinetobacter baumannii, Acinetobacter baumannii CDC-101 (OXA-24, OXA-65), read-out: MIC); > 32 µg/mL with Enterobacter hormaechei. The MIC in the experiment on Escherichia coli (setting [4]) and in the experiment with Escherichia coli (setting [19]) was > 32 µg/mL in each case.
In the case of `CC(C)(O/N=C(\C(=O)N[C@@H]1C(=O)N2C(C(=O)[O-])=C(C[N+]3(CCNC(=O)c4ccc(O)c(O)c4Cl)CCCC3)CS[C@H]12)c1csc(N)n1)C(=O)O` [Cefiderocol, cefiderocol], the MIC with Klebsiella pneumoniae (setting [5]) was 2 µg/mL (≈ 2.66 µM); in the experiment with Klebsiella pneumoniae (setting [6]), 2 µg/mL (≈ 2.66 µM); against Klebsiella pneumoniae (setting [7]) it was 0.25 µg/mL (≈ 0.332 µM); in the experiment with Klebsiella pneumoniae (setting [8]) it was 1 µg/mL (≈ 1.33 µM); in the experiment with Klebsiella pneumoniae (setting [9]), 2 µg/mL (≈ 2.66 µM); in the experiment on Klebsiella pneumoniae (setting [10]) it was 2 µg/mL (≈ 2.66 µM). Also, the MIC in the experiment with Klebsiella pneumoniae (setting [11]) turned out to be 0.5 µg/mL (≈ 0.665 µM); in the experiment on Klebsiella pneumoniae (setting [12]), 0.25 µg/mL (≈ 0.332 µM); with Klebsiella pneumoniae (setting [13]), 8 µg/mL (≈ 10.6 µM); against Klebsiella pneumoniae (setting [14]), 8 µg/mL (≈ 10.6 µM); with Klebsiella pneumoniae (setting [15]), 2 µg/mL (≈ 2.66 µM); against Klebsiella pneumoniae (setting [2]), 1 µg/mL (≈ 1.33 µM). Besides, the MIC in the experiment on Klebsiella pneumoniae (setting [3]) amounted to 2 µg/mL (≈ 2.66 µM); with Enterobacter cloacae (setting [16]), 0.5 µg/mL (≈ 0.665 µM); in the experiment with Enterobacter cloacae (setting [17]), 1 µg/mL (≈ 1.33 µM); against Enterobacter hormaechei, 2 µg/mL (≈ 2.66 µM); in the experiment with Escherichia coli (setting [4]) it was 0.5 µg/mL (≈ 0.665 µM); against Escherichia coli (setting [19]) it was 4 µg/mL (≈ 5.32 µM). For the same molecule, the MIC90 in experiment [1] (read-out: MIC90) is 8 µg/mL.
For `CN(C)c1cc(NC(=O)CNC(C)(C)C)c(O)c2c1C[C@H]1C[C@H]3[C@H](N(C)C)C(O)=C(C(N)=O)C(=O)[C@@]3(O)C(O)=C1C2=O` [Tigecycline, tigecycline], the MIC90 in experiment [1] (read-out: MIC90) turned out to be 4 µg/mL.
Take colistin: in experiment [1] (Metallo-β-lactamase (N = 27): IMP-1 (12), IMP-6 (3), IMP-34 (1), NDM-1 (8), NDM-6 (1), VIM-1 (2)), the MIC50 came to 0.25. The MIC90 in [1] is 1 µg/mL.
